For data set [1], the system named is Gata6-AF488 and Gata6-AF647 DNA. Kind of data set: Intermolecular diffusion smFRET DNA bridging. The format is binding. Conditions: 250 nM NANOG WT. As to the method:
(§1) FIGS. 6A-6G provide data related to intermolecular DNA bridging through NANOG assemblies. […] The peak at EFRET ˜0 corresponds to AF488-conjugated unbound/bound DNA. FIGS. 6E1-4 show representative cross-correlation FCCS curves of Gata6-AF488 and Gata6-AF647 with various concentrations of WT ((i) 0 nM; (ii) 63 nM; (iii) 875 nM) and W8A mutant ((iv) 875 nM). […] Nad and diffusion coefficients were derived and calculated from FCCS fits (Methods). […] Through prion-like assembly, NANOG can initiate intragenomic (promoter-enhancer) contacts, as well as connecting distant intergenomic loci to form superenhancer clusters with other TFs and coactivators (green/yellow).
To test the DNA bridging hypothesis, Applicant performed single molecule FRET (smFRET) diffusion experiments. Intermolecular diffusion smFRET is challenging due to low chance encounters at dilute pM concentrations. Gata6 DNAs were independently labeled with AF488 or AF647. […] However, in the presence of 250 nM NANOG WT.

Data set [2] has the same test system. The data set can be described thus: FCCS DNA bridging by NANOG. It is filed as binding. The method, then: as §1
To further validate NANOG-dependent DNA bridging, Applicant resorted to fluorescence cross-correlation technique (FCCS). Binding of individual DNAs (differentially labeled with AF488 and AF647) to form a complex would result in correlated fluorescence signals.
FCCS experiments with various NANOG concentrations confirmed cross-correlation with as little as ˜30 nM WT NANOG (FIG. 6F). The increase in cross-correlated particles coincided with a decrease in molecular complex diffusion coefficient (bright lower line, FIG. 6F). Without being bound by theory, the decrease in cross-correlated particles at high NANOG concentrations may reflect competition for DNA with excess NANOG.

The target in data set [3] is dsDNA GATA6-AF488/GATA6-AF647. Kind of data set: fEMSA with dsDNA. The format is binding. As to the method:
(§2) Basic residues, 3 Arg and 2 Lys, were incorporated for nucleic acid recognition. […] Similar results were obtained from two independent experiments. FIG. 8C (left panels) show photon bursts distribution of dsDNAs alone (GATA6-AF488 and GATA6-AF647; top) or with 7.5 μM (0.03 mg/mL) 1-4wRK peptide (bottom). Middle panels of FIG. 8C show FCCS curves for corresponding photon fluctuations shown in the left panels. […] Similar results were obtained from three independent experiments. […] Similar results were obtained from three independent experiments. […] Error bars were calculated from three independent measurements. […] Similar results were obtained from two independent experiments.
(§3) ThT binding to amyloid β-sheet emits maximally at ˜490 nm. Similar results were obtained from 2 independent experiments. […] Similar results were obtained from 2 independent experiments.
(§4) Applicant observed nucleic acid interactions by fluorescence electrophoretic mobility shift assays (fEMSA). […] Moreover, the 1-4wRK peptide was also potent in recognizing single stranded DNA (ssDNA (TG)6) and RNA (ssRNA (UUAGGG)4-AF488/AF594).
(§5) By EMSA, almost all DNAs were bound at […] or 0.03 mg/mL 1-3wRRK. […] This was further corroborated by fluorescence polarization measurements.

Data set [4] has as its system ssDNA (TG)6 and ssRNA (UUAGGG)4-AF488/AF594. Kind of data set: fEMSA with single stranded nucleic acids. Conditions: immobilized in the gel wells. It is filed as binding. The method, then: as §2, §4
Data set [5] concerns GATA6-AF488 and GATA6-AF647. The data set can be described thus: FCCS DNA bridging by peptides. It is filed as binding. The method, then:
as §2
ThT binding to amyloid β-sheet emits maximally at ˜490 nm. Similar results were obtained from 2 independent experiments. […]
Applicant also tested the minipeptides' ability to bring together independent DNA molecules in solution. Using Fluorescence Cross-Correlation Spectroscopy (FCCS), Applicant observed an absence of cross-correlation between differentially fluorescently labeled DNAs (GATA6-AF488 and GATA6-AF647) without the peptide. […]
The significant 1-3wRK DNA-bridging competency was further confirmed by FCCS titration data and burst analysis, where Applicant observed cross-correlation even at ˜30 nM 1-3wRRK. […] Applicant demarcated the LLPS regimes using turbidity assay (UV absorbance at 350 nm; FIG. 8J). […]

Data set [6] has as its system fluorescent proteins h6GeGFP and h6GmCherry. Kind of data set: Co-partitioning with fluorescent proteins. The note with it: h6GeGFP and h6GmCherry 5 μM. The method, then: as §2
Applicant used burst analysis to quantify sizes of the oligomeric species. The average fluctuations were assumed to represent monomeric species, and any degree of deviations from average were characterized as the oligomeric states. Applicant observed numerous heterogeneous oligomeric states that increased in molecular sizes with increasing peptide concentration (FIGS. 8D-8E). Because NANOG is also known as a ‘molecular hub’ protein capable of interactions with many proteins with its WR domain, Applicant tested whether the WR peptide mimetics could non-specifically recruit random proteins (e.g., fluorescent proteins h6GeGFP and h6GmCherry for convenient visualization). […]

For data set [7], the system named is GATA6 dsDNA. The data set can be described thus: Fluorescence polarization binding measurements. Conditions: Hill binding equation, mean±SD.
Description: as §3
Since 1-3wRRK became soluble and much less aggregation-prone on its own, Applicant determined if the WR repeat (steric zipper region) was affected by changes in physical properties and still contributed towards recognizing DNA. Applicant compared its DNA binding capability to TAT and 1-4wRK by EMSA and fluorescence polarization measurements (FIGS. 9G-9H). Applicant observed that 1-3wRRK binds DNA more effectively than 1-4wRK, mostly likely due to the extra basic residues (FIGS. 8B, 9G, and 9H).
as §5

Data set [8] relates to DNA. Kind of data set: LLPS turbidity assay (UV absorbance at 350 nm). It is filed as physicochemical. The method, then:
as §3
The significant 1-3wRK DNA-bridging competency was further confirmed by FCCS titration data and burst analysis, where Applicant observed cross-correlation even at ˜30 nM 1-3wRRK. Applicant next investigated whether the peptides' ability to form nano-assemblies also correlated with their capacity to drive mesoscale condensates. Applicant demarcated the LLPS regimes using turbidity assay (UV absorbance at 350 nm; FIG. 8J). The LLPS data (presented in mg/mL concentration unit in FIG. 8J) reflected the behaviors observed at nanoscale level.

Like-named read-outs stand apart in the source and are kept apart here.

Data on two substances can be found in patent US20240383953A1, “NOVEL NAN[…] NANOG PRION-LIKE REPEATS” (BAYLOR COLLEGE OF MEDICINE, priority 2021, published 2024).

In the case of NANOG WT, the “proximity of separate DNAs” value in data set [1] is listed as no more than 70 Å. In data set [2], the “cross-correlation of differentially labeled DNAs” value is “significant cross-correlation” and the “lowest concentration giving cross-correlation” value is listed as roughly 30 nM. In data set [3] (full-length NANOG, for comparison, read-out: dsDNA affinity), the Kd fell in the range of 30 to 60 nM.

For the substance WSNQTWNNSTWSNQTQNIQSWSNHSRRRKK [1-4wRK], in data set [3] (fEMSA, read-out: dsDNA affinity (50% free DNA)), the Kd was roughly 1000 nM. In addition, in data set [4], the “peptide concentration giving completely bound peptide:nucleic acid complexes” value was in the range of 60 to 250 nM. In data set [5] (0.9 μM peptides), the “cross-correlation (DNA bridging)” value is “small degree of cross-correlation”. Besides, in data set [5] (FCCS titration), the “lowest peptide concentration giving cross-correlation” value was found to be 1 µM. The “peptide concentration giving visible precipitates of fluorescent proteins” value in data set [6] was roughly 0.3 mg/mL. In addition, the cooperativity n in data set [7] stood at 3.3±1.2. The “binding constant Ka” value in data set [7] (n=3) was 340 ± 110 nM. Moreover, in data set [8] (0.2 mg/mL peptide), the “aggregation without DNA” value is reported as “aggregates even without DNA”. In data set [8] (turbidity Abs350 nm>0.07 = LLPS positive), the “potency in driving DNA:peptide LLPS” value is reported as “more effective than TAT at higher concentrations of DNA”.
